Assay results: US20060148725A1, “Selective 11beta HSD inhibitors and methods of use thereof” (The Miriam Hospital, priority 2001, published 2006)

Key:
[1] = system: rat aortic rings; assay: Contractile response of rat aortic rings to phenylephrine; format: cell-based; details: rings incubated 24 hours with corticosterone 10 nmol/L and antisense 3 μmol/L; graded phenylephrine
Method: Male Sprague-Dawley (1 50-200 g) rats were anesthetized with pentobarbital (50 mg/kg IP), and a median sternotomy was performed followed by the rapid removal of the thoracic aorta. The adventitia was removed, but the endothelium was left intact. The aorta was cut into 2-3 mm rings and individual rings were placed into a single well of a twenty four well culture plate and incubated at 37° C. under 95% O2-5% CO2. Each well contained 1 mL of DMEM/F12 containing 1% fetal bovine serum, streptomycin (100 μg/ml), penicillin (100 units/ml) and amphotericin (0.25 μg/ml). […]
For contraction measurements, aortic rings were suspended by tungsten wires with 1 g of tension and placed in a vessel bath containing serum free DMEM/F12 media at 37° C. aerated with 95% O2-5% CO2, at pH 7.4. […] The intensity of contraction was assessed by use of a Narishige micromanipulator and model FT03 force transducer (Grass Instrument Co. West Warwick, R.I.). Measurements were recorded on computer using the Labview 4.1 Virtual Instrument System (National Instruments, Austin, Tex.).

[2] = system: 11β-HSD1; assay: Conversion of 3H-corticosterone to 11-dehydrocorticosterone by aortic rings, 11β-HSD1 antisense; format: cell-based, rat; details: 3H-corticosterone 10 nM, antisense 3 μM, 24 hrs
Method: (§1) The effects of 11β-HSD1 and 11β-HSD2 antisense on the inter-conversion of ^3H-corticosterone and ^3H-11-dehydro-corticosterone by aortic rings was also determined. Rings (2-3 mm) obtained in a similar manner as those in the contraction studies, were incubated in 1 ml DMEM/F12 media containing 1% FBS at 37° C. under 95% O2-5% CO2 in 24-well culture plates. Rings were incubated for 24 hours with: • (i) ^3H-corticosterone (10 nmol/L)±11β-HSD2 or 11β-HSD1 antisense (3 μmol/L); control groups received nonsense oligomers. The amount of ^3H-11-dehydro-corticqsterone in the incubation medium after 24 hrs was then measured. The effects of 11β-HSD1 antisense/nonsense were measured in quadruplicate (n=6 aortic rings per well) and the effects of 11β-HSD2 antisense/nonsense in duplicate (n=8 aortic rings per well), • (ii) ^3H-11-dehydro-corticosterone (10 nmol/L)±11β-HSD1 antisense (3 μmol/L); this experiment was performed in duplicate (n=10 aortic rings per well). Control groups were incubated with the appropriate nonsense oligomer. ^3H-corticosterone in the incubation medium after 24 hrs was then measured. In this experiment, aortic rings were also analyzed for ^3H-corticosterone content. Rings from duplicate incubations (total n=20) were blotted dry, pooled and homogenized in 50 % methanol using a Polytron. […]

[3] = system: 11β-HSD1; assay: RT-PCR analysis of 11β-HSD1 expression in cultured vascular cells; format: cell-based; details: cultured rat vascular endothelial and smooth muscle cells
Source text: (§2) Since 11β-HSD2 appears to exist only in endothelial cells, this observation supports a role for the action of glucocorticoids in affecting endothelial cell function. […] Further experiments to determine whether antisense oligomers down-regulate mRNA and protein expression of their respective 11β-HSD isoform under conditions in which they enhance contractile responses in aortic rings will be done.

[4] = target: 11β-HSD1 Reductase (Rattus norvegicus, UniProt P16232); assay: Metabolism of 3H-11-dehydrocorticosterone back to corticosterone by aortic rings; format: cell-based; design: from tissue; host or cells: rat (Sprague-Dawley) thoracic aortic rings, endothelium intact; details: 24 hours
11β-HSD1 Reductase, sequence (P16232 whole entry): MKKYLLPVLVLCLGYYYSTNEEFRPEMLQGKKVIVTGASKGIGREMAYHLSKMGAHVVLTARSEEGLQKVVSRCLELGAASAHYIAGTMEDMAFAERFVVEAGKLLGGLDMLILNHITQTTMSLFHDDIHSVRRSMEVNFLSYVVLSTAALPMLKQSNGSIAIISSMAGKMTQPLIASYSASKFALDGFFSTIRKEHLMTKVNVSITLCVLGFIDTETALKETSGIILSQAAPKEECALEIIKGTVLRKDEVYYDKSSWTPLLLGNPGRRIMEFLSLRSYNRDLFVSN
Method: as §1

[5] = system: 11β-HSD2; assay: RT-PCR analysis of 11β-HSD2 expression in cultured vascular cells; format: cell-based; details: cultured rat vascular endothelial and smooth muscle cells
Source text: as §2

[6] = system: 11β-HSD2; assay: Conversion of 3H-corticosterone to 11-dehydrocorticosterone by aortic rings, 11β-HSD2 antisense; format: cell-based, rat; details: antisense 3 μM, 24 hrs
Method: as §1

Substance | contractile response to phenylephrine compared to corticosterone plus nonsense oligomers [1] | conversion of corticosterone to 11-dehydrocorticosterone, lower than with 11β-HSD1 nonsense oligomers [2] [%] | expression of 11β-HSD1 isoform by RT-PCR [3] | production of 3H-corticosterone from 3H-11-dehydrocorticosterone, incubation media, compared to nonsense oligomers ([4]; incubation media) | production of 3H-corticosterone from 3H-11-dehydrocorticosterone, aortic ring tissue, compared to nonsense oligomers ([4]; pooled aortic ring tissue) | expression of 11β-HSD2 isoform by RT-PCR [5] | reduction in the conversion of corticosterone to 11-dehydrocorticosterone compared to 11β-HSD2 nonsense [6] [%]
11β-HSD1 antisense: Antisense phosphorothioate oligonucleotide blocking 11β-HSD1 gene expression, 5′-CATAACTGCCGTCCAACAGC-3′ (antisense CATAACTGCCGTCCAACAGC; all phosphorothioate, sugars by position and methylation of C not given here) | significantly increased | 21 | down-regulate | markedly reduced | markedly lower |  | 
11β-HSD2 antisense: Antisense phosphorothioate oligonucleotide blocking 11β-HSD2 gene expression, 5′-AGGCCAGCGCTCCATGACTT-3′ (antisense AGGCCAGCGCTCCATGACTT; all phosphorothioate, sugars by position and methylation of C not given here) | statistically significant increase |  |  |  |  | down-regulate | 24
